Source: patent publication US7632679B2, “Systems and methods for screening for modulators of neural differentiation” (The Trustees of Columbia University in the City of New York, priority 2002, dated 2009)
“Also recorded” adds a separate entry of the source.

Tests used:
[1] = tested on: ES-cell-derived embryoid bodies; experiment: HB9+ motor neuron generation in embryoid bodies; type: cell-based, mouse
Method: (§1) For some experiments, ES cells were grown on a monolayer of stromal PA6 cell line (Riken Cell Bank, Japan), in DFK5 medium alone, or supplemented with 2 μM RA, as described (Kawasaki et al., Induction of midbrain dopaminergic neurons from ES cells by stromal cell-derived inducing activity. Neuron, 28:31-40, 2000).
To begin to examine the capacity of mouse ES cells to generate motor neurons, the inventors grew mouse ES cells in aggregate culture for 2 days, a procedure that results in the formation of embryoid bodies (EBs) (Bain et al., Embryonic stem cells express neuronal properties in vitro. Dev. Biol., 168:342-57, 1995).

[2] = tested on: HBG3 ES cells; experiment: eGFP+ motor neuron generation in HBG3 ES-cell-derived embryoid bodies; type: cell-based, mouse
Method: as §1
A transgenic mouse line was established by pronucleus injection of a construct that used a ˜9 kB fragment comprising the 5′ upstream region of the murine HB9 gene (Arber et al., Requirement for the homeobox gene Hb9 in the consolidation of motor neuron identity. Neuron, 23:659-764, 1999), followed by a 5′ splice substrate (Choi et al., A generic intron increases gene expression in transgenic mice. Mol. Cell Biol., 11:3070-74, 1991), an eGFP gene, and a bovine growth hormone polyadenylation signal. The ˜9 kB Not1 fragment of HB9 is sufficient to direct eGFP expression to develop motor neurons in transgenic embryos examined from E9.5 to P10. In one transgenic line (mHB9-Gfp1b), the pattern of eGFP expression corresponded closely to the profile of expression of endogenous HB9. ES-cell lines were derived from mHB9-Gfp1b heterozygous blastocysts, as previously described (Abbondanzo et al., Derivation of embryonic stem cell lines. Methods Enzymol., 225:803-23, 1993). One selected line (HBG3) was tested for its capacity to integrate into developing mouse blastocysts and its capacity for germline transmission.
HBG3 ES-cell embryoid bodies were dissociated using a papain dissociation system (Worthington Biochemical Corp.). Cells expressing high levels of eGFP were sorted from the cell suspension with a Beckman-Coulter Altra flow cytometer, based on their eGFP fluorescence and forward light scatter using the gate indicated in the plot. Typically, 20-30% of input cells expressed high levels of GFP. The analysis established that this eGFP-Hi cell group constituted a >95% pure population of motor neurons. The yield of a typical FACS sort is 3000-5000 GFP-Hi cells per EB.

[3] = tested on: neural progenitor cells in embryoid bodies; experiment: Progenitor transcription factor expression (ventralization) in RA-exposed embryoid bodies; type: cell-based, mouse
[4] = tested on: ES cells / embryoid bodies; experiment: Suppression and induction of a neural character in differentiating embryoid bodies; type: cell-based, mouse; details: for acquisition of neural precursor cell fate (Sox1): 4 days of differentiation, factor present for entire culture (Wnt3a conditioned medium 1×, BMP4 10 ng/ml, SU5402 5 μM); for neural precursor or post-mitotic neural cells: EBs differentiated 4 days with RA+Wnt3a or RA+BMP4
Method: (§2) Medium was replaced every 2 days. Medium was supplemented by factors, at the start of ES-cell aggregation/differentiation (day 0) or on day 2, as indicated below, and cultured for a further 2-8 days.
(§3) Soluble Wnt3a and control-conditioned medium (Wilson et al., The status of Wnt signaling regulates neural and epidermal fates in the chick embryo. Nature, 411:325-30, 2001) were prepared, as previously described (Shibamoto et al., Cytoskeletal reorganization by soluble Wnt-3a protein signalling. Genes Cells, 3:659-70, 1998). Soluble Frizzled 8 (mFrz8CRD-IgG) and control-conditioned medium were prepared by transfecting HEK-293 cells with mfz8CRD-IgG (Hsieh et al., Biochemical characterization of Wnt-frizzled interactions using a soluble, biologically active vertebrate Wnt protein. Proc. Natl. Acad. Sci. USA, 96:3546-51, 1999) or LacZ reporter construct (Wilson et al., An early requirement for FGF signalling in the acquisition of neural cell fate in the chick embryo. Curr. Biol., 10:421-29, 2000). The transfected HEK-293 cells were then incubated for 48 h in OPTI-MEM medium. mFrzCRD-1gG conditioned medium was used undiluted.
Immunohistochemical localization of proteins was performed, as previously described (Yamada et al., Control of cell pattern in the developing nervous system: polarizing activity of the floor plate and notochord. Cell, 64:635-47, 1991). Neural precursor (neural progenitor) cells were delineated by expression of rabbit anti-Sox1. Post-mitotic neurons were delineated using mouse anti-Pax6. Otx1/Otx2 and Eng1, which are co-expressed at the midbrain/hindbrain boundary, were used to define cells of a midbrain-like character (Davis and Joyner, Expression patterns of the homeo box-containing genes En-1 and En-2 and the proto-oncogene int-1 diverge during mouse development. Genes Dev., 2:1736-44, 1988). Hox C6 and HoxC8 were used to delineate cells of a spinal-cord character. Krox20 (Covance) is expressed in hindbrain cells, in regions fated to give rise to rhombomeres 3 and 5; thus, co-expression of Sox1 and Otx1/Otx2, in the absence of Eng1 or Krox 20, was used to delineate an anterior/prosencephalic character (Lemaire and Kessel, Gastrulation and homeobox genes in chick embryos. Mech. Dev., 67:3-16, 1997).
In control experiments, 15-30% of cells attained a neural-cell fate when subjected to aggregation in differentiation medium. To suppress a neural-cell fate, medium was supplemented by Wnt3a conditioned medium (1×), BMP4 (10 ng/ml), or SU5402 (5 μM), at the start of ES-cell aggregation (day 0). To induce a neural-cell fate, medium was supplemented by mFRZ8CRD conditioned medium (2×) at the start of ES-cell aggregation (day 0). ES cells were differentiated for 4-8 days.

[5] = tested on: ES-cell-derived neural precursor cells; experiment: Caudalization of a neural character by Wnt3a; type: cell-based, mouse; details: Wnt3a at different concentrations and/or times; 2 days differentiation medium, then 2 days with Wnt3a
Method: as §2, §3
Immunohistochemical localization of proteins was performed, as previously described (Yamada et al., Control of cell pattern in the developing nervous system: polarizing activity of the floor plate and notochord. Cell, 64:635-47, 1991). […]

[6] = tested on: mouse ES cells; experiment: Directed differentiation of ES cells into LH2-positive dorsal spinal neurons; type: cell-based; details: embryoid bodies grown in the presence of BMP7
Method: Embryonic stem (ES) cells were grown on mouse embryonic fibroblasts in ES-cell medium, as described in Example 1. ES-cell colonies were partially dissociated with 0.05% trypsin/EDTA, after 2 days, and cultured in DFNB medium (neurobasal medium (Gibco) mixed with DMEM (Specialty Media, EmbryoMax) and F12 (Gibco), in a 2:1:1 ratio, supplemented with 1×B27 supplement, 0.1 mM 2-mercaptoethanol (Sigma), 2 mM L-glutamine (Gibco), and 1× penicillin/streptomycin (Gibco)) (˜10^5 cells/ml).
After 2 days in culture, embryoid bodies (EBs) were plated in DFNB medium supplemented with retinoic acid (100 nM to 1 μM) (Sigma). After 1-2 days in culture, in the presence of retinoic acid, EBs were collected, rinsed 2-3 times with PBS, and plated in DFNB medium supplemented with human BMP4 (10 ng/ml; R&D systems) or BMP7 (20 ng/ml). After an additional 4 days in culture, cells were fixed using 4% paraformaldehyde, and processed for immunocytochemistry.

[7] = RA-treated EBs, 10 nM Hh-Ag1.3, 3 days

For `CNC1CCC(N(Cc2cccc(-c3ccncc3)c2)C(=O)c2sc3ccccc3c2Cl)CC1` (centres unmarked) [Hh-Ag1.3], the “HB9+ neurons in EBs” value ([1]; Hh-Ag1.3 (1 μM) for 5 days without RA) was “No HB9^+ neurons were generated; also recorded: did not contain HB9^+ neurons”, the “HB9+ neurons per section” value ([1]; RA-treated EBs plus SHh (300 nM) or Hh-Ag1.3 (1 μM)) was 509±57 HB9^+ neurons/section and the “HB9+ neurons per EB” value ([1]; RA-treated EBs plus SHh (300 nM) or Hh-Ag1.3 (1 μM), ~10-15 sections per EB) was 5000 HB9^+ neurons. The “toxicity for cells differentiating in EBs” value ([2]; 10 μM Hh-Ag1.3) was “became toxic for cells differentiating in EBs”, the “generation of eGFP+/HB9+ motor neurons” value ([2]; Hh-Ag1.3 (1 μM) in the absence of RA) was “failed to generate eGFP^+/HB9^+ motor neurons” and the “eGFP+/HB9+ motor neurons as share of total cells in EBs” value ([2]; RA and 1 μM Hh-Ag1.3) was 20-30%. For the same molecule, the “cells in EBs expressing eGFP” value ([2]; RA plus 2.2 μM Hh-Ag1.3, 5 days) was 22.5%, the “number of eGFP+/HB9+ motor neurons” value ([2]; RA-exposed HBG3 EBs plus Hh-Ag1.3, concentration-dependent (0 to 2.2 μM)) was “increased” and the “BrdU incorporation by Olig2+ cells” value ([3]; Hh-Ag1.3-exposed EBs, 3 days with RA) was “incorporated BrdU”. For the same molecule, the “Nkx6.1+ and Olig2+ cells” value [3, 7] was “a few Nkx6.1^+ and Olig2^+ cells were detected”, the Pax7 expression [3, 7] was “completely repressed” and the “number of Dbx1+ cells” value [3, 7] was “reduced”. For the same molecule, the “number of Pax6+ and Irx3+ cells” value [3, 7] was “increased”, the Dbx1 expression ([3]; RA-treated EBs, 1 μM Hh-Ag1.3) was “virtually eliminated” and the “HNF3β+ floor plate cells” value ([3]; RA-treated EBs, 1 μM Hh-Ag1.3) was “no HNF3β^+ floor plate cells were detected”. The “Nkx2.2+ cells” value ([3]; RA-treated EBs, 1 μM Hh-Ag1.3) was “a few Nkx2.2^+ cells were also induced”, the “number of Irx3+ and Pax6+ cells” value ([3]; RA-treated EBs, 1 μM Hh-Ag1.3) was “markedly reduced” and the “number of Nkx6+ and Olig2+ cells” value ([3]; RA-treated EBs, 1 μM Hh-Ag1.3) was “large increase”.

In the case of `CC1=C(/C=C/C(C)=C/C=C/C(C)=C/C(=O)O)C(C)(C)CCC1` [RA, retinoic acid], the “HB9+ neurons per section” value ([1]; RA-exposed EBs grown alone for 5 days) is reported as 7±2 HB9^+ neurons/section.

`Cc1c[nH]c(/C=C2\C(=O)Nc3ccccc32)c1CCC(=O)O` [SU5402] was tested, and the “acquisition of neural precursor cell fate (Sox1)” value (“acquisition” for short) [4] was “could not acquire a neural precursor cell fate”.

With Wnt3a the “acquisition” value [4] was “could not acquire a neural precursor cell fate”, the “neural precursor or post-mitotic neural cells” value [4] was “no neural precursor or post-mitotic neural cells were present” and the “caudalization of neural cells” value [5] was “progressively caudalized to hindbrain and spinal cord character”.

B1: BMP4: human BMP4 protein (bone morphogenetic protein), R&D systems (protein, UniProt P12644 293-408, looked up)
Bone morphogenetic protein 4: SPKHHSQRARKKNKNCRRHSLYVDFSDVGWNDWIVAPPGYQAFYCHGDCPFPLADHLNSTNHAIVQTLVNSVNSSIPKACCVPTELSAISMLYLDEYDKVVLKNYQEMVVEGCGCR
B1 was tested, and the “acquisition” value [4] was “could not acquire a neural precursor cell fate” and the “neural precursor or post-mitotic neural cells” value [4] was “no neural precursor or post-mitotic neural cells were present”.

B2: BMP7: bone morphogenetic protein 7 (protein, UniProt P18075 293-431, looked up)
Bone morphogenetic protein 7: STGSKQRSQNRSKTPKNQEALRMANVAENSSSDQRQACKKHELYVSFRDLGWQDWIIAPEGYAAYYCEGECAFPLNSYMNATNHAIVQTLVHFINPETVPKPCCAPTQLNAISVLYFDDSSNVILKKYRNMVVRACGCH
B2 was tested, and the “dorsal spinal neurons (LH2) and their progenitors (Math1)” value [6] was “numerous dorsal neurons and their progenitors were observed”.
